{"source": "ChEMBL document CHEMBL3879895", "about": "“Compositions and methods for treating ocular edema, neovascularization and related diseases” (2014)", "tested_on": "Mus musculus", "test": "Reduction of neovascular tufts in retina of rhodopsin/VEGF transgenic mouse at 3 to 10 mg/kg, sc bid administered for 7 days started on post natal day 14 measured on post natal day 21 by FITC-conjugated GSA-lectin staining-based fluorescence microscopy", "type": "functional, organism-based", "note": "Activity calls are given as the source filed them. The rule behind the calls is not given here.", "data": [{"compound": "COC(=O)N[C@@H](Cc1ccccc1)C(=O)N[C@@H](Cc1ccc(NS(=O)(=O)O)cc1)c1csc(-c2csc(-c3cccs3)n2)n1", "values": [{"measurement": "Activity", "result": "Active"}]}]}
